Results as given in patent US6337348B1, “Oxy-vanadium (iv) complexes having spermicidal activity” (Parker Hughes Institute, priority 1998, dated 2002).

What was measured:
human sperm [1] = assay: Sperm immobilization assay (SIA), motility by CASA; type: cell-based; settings: read-out: EC50 (concentration that decreases the proportion of motile sperm by 50%); 3 hours incubation at 37° C., BWW-0.3% BSA, serial 2-fold dilutions 250 μM to 1.9 μM, mean of two experiments
Procedure: To evaluate the spermicidal effects of complexes of oxovanadium (IV), VO(phen), VO(phen)2, VO(Me2—phen), VO(Me2—phen)2, VO(Cl—phen), VO(Cl—phen)2], VO(bipy), VO(bipy)2, VO(Me2—bipy), VO(Me2—bipy)2, and VO(Br,OH—acph)2, a highly motile fraction of pooled donor sperm (N=5) was prepared by discontinuous (90−45%). Percoll gradient (Conception Technologies, San Diego, Calif.) centrifugation and the “swim-up” method as described previously (Aitken et al., 1989, Biol. Reprod. 40:183-197). All donor specimens were obtained after informed consent and in compliance with the guidelines of the Hughes Institutional Review Board. Motile sperm (≳10×10^6/ml) were suspended in 1 ml of Biggers, Whitten, and Whittingham's medium (BWW) containing 0.3% BSA (fraction V; Sigma Chemical Co., St. Louis, Mo.) in the presence and absence of serial 2-fold dilutions of test substance (250 μM−1.9 μM) in 0.25% dimethyl sulfoxide (DMSO). For each experiment, fresh stock solutions (100 mM) of vanadium compounds were prepared in DMSO. A corresponding volume of DMSO (0.25%) was added to control sperm suspension. After 3 hours of incubation at 37° C., the percentage of motile sperm was evaluated by computer-assisted sperm motion analysis (CASA) as described previously (Aitken et al., 1989, Supra). The percentages of motilities were compared with those of sham-treated control suspensions of motile sperm.
For CASA, 4 μl each of sperm suspension was loaded into two 20 μm Microcell chambers placed onto a counting chamber at 37° C. At least 5-8 fields per chamber were scanned for analysis using a Hamilton Thorne Integrated Visual Optical System (IVOS) version 10 instrument (Hamilton Thorne Research Inc., Danvers, Mass.). Each field was recorded for 30 seconds. The Hamilton Thorne computer calibrations were set at 30 frames at a frame rate of 30 images/seconds. Other settings were as follows: minimum contrast 8; minimum size 6; low-size gate, 1.0; high-size gate,2.9; low-intensity gate, 0.6; high-intensity gate, 1.4; phase-contrast illumination; low path velocity at 10 μm/seconds and threshold straightness at 80%; magnification factor, 1.95. The performance of the analyzer was periodically checked using the playback function.
Results for the various numerical sperm functional parameters are presented as mean±standard deviation (SD) values. Comparison between oxovanadium (IV) complex-treated and control sperm relative to sperm motility parameters and apoptosis were performed using paired, two-tailed Student's T-test. A p value of <0.05 was considered significant.

human sperm [2] = assay: Flow cytometric quantitation of sperm acrosome reaction (anti-CD46 mAb binding); type: cell-based; settings: tested at 100 μM, 3 hours, 37° C., mean of two experiments
Procedure: In experiments designed to assess the comparative effects of oxovanadium (IV) complexes and N-9 on sperm acrosome reaction, motile fractions of sperm (10^7/ml) prepared from a single donor were incubated in 1 ml of BWW−0.3% BSA in the presence of 100 μM each of the vanadocene complexes, VO(phen), VO(phen)2, VO(Me2—phen), VO(Me2—phen)2, VO(Cl—phen), VO(Cl—phen)2, VO(bipy), VO(bipy)2, VO(Me2—bipy), VO(Me2—bipy)2, and VO(Br,OH—acph)2 in 0.1% DMSO, N-9, or DMSO (0.1%) alone at 37° C. After 3 hours, 5 μg/ml of purified, phycoerythrin (PE)-conjugated murine anti-CD46 monoclonal antibody (mAb; clone 122-2; Research Diagnostics, Flanders, N.J.) was added and the sperm suspensions incubated for an additional 30 minutes. The suspensions was washed in Tyrode's salt solution (Sigma) containing 1% BSA (1% TBSA) and the percentage of CD46-positive sperm were analyzed by flow cytometry using a FACS Vantage flow cytometer (Becton Dickinson, Mountain View, Calif.), as described previously (DeCruz et al., 1996, Biol Reprod. 54:1217-1228; DeCruz et al., 1992, Fertil. Seril., 58:633-636). Two separate experiments were performed to quantitate acrosomal loss following exposure of sperm to oxovanadium (IV) complexes.

Substance: nonoxynol-9 [N-9, reference compound]
- EC50 (human sperm [1]): 78.5 µM
- Anti-CD46 positive sperm (%) (human sperm [2]): 86%
